The values that follow come from US12655145B2, “P2X3 modulators” (GlaxoSmithKline Intellectual Property (No. 3) Limited, priority 2020, dated 2026).

This assay deals with T1, P2X3 (Homo sapiens, UniProt P56373).
T1 construct: expressed in transfected cells; host or cells: HEK293
T1 sequence (P56373 1-397): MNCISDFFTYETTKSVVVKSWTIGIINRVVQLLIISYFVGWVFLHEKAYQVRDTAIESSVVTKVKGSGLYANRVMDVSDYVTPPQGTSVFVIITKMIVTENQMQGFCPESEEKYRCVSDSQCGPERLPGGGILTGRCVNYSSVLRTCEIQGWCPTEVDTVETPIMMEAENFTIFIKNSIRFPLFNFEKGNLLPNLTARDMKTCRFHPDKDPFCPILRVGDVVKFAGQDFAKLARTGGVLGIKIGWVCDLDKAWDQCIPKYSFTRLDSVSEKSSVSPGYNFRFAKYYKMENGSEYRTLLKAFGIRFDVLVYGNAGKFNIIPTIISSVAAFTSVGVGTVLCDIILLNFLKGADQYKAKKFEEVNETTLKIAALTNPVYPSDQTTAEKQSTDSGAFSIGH
The experiment in a line: P2X3 Antagonist Assay (FLIPR calcium, Fluo-8, HEK293 cells transfected with human ion channel cDNAs, αβ-meATP stimulation). Type of assay: cell-based. To be noted: antagonist mode, αβ-meATP 3 μM; for inhibition at 1 µM: HEK293, @ 1 μM, read-out: P2X3 IC50 column, given as % @ 1 μM. As to the method:
Example 59: P2X3 Antagonist Assay
HEK293 were transiently or stably transfected with human ion channel cDNAs as indicated in section 1. Stable transfectants were selected by coexpression with the antibiotic-resistance gene(s) incorporated into the expression plasmid(s). Selection pressure was maintained by including selection antibiotics in the culture medium. HEK293 cells were cultured in Dulbecco's Modified Eagle Medium/Nutrient Mixture F-12 (D-MEM/F-12) supplemented with 10% fetal bovine serum, 100 U/mL penicillin G sodium, 100 J·Lg/mL streptomycin sulfate and appropriate selection antibiotics.
The effect of each test article to act as an antagonist was evaluated. Each test article was evaluated at eight (8) concentrations (0.001, 0.003, 0.01, 0.03, 0.1, 0.3, 1 and 3 μM, n=3) with 4 replicates for each concentration. Experiments were performed with the FLIPR calcium sensitive dye kit (Fluo-8 dye, AAT, Bioquest) according to the manufacturer's instructions. • Dye-loading: Growth media will be removed and add 20 μL of Mg^++-free HBPS containing Fluo-8 for 30 min at 37° C. • Preincubation (FLIPR step 1): Adding 5× (5 μL) test, vehicle, or control article solutions in Mg^+-free HBPS to each well for 20 minutes at room temperature, protected from light. • Stimulation (FLIPR step 2): After pre-incubation, cells will be stimulated with 6× (5 μL) αβ-meATP at final concentration of 3 μM prepared in Mg^++-free HBPS. • Non-Specific Calcium Influx (FLIPR step 3): 5 minutes after stimulation solution addition, non-specific calcium influx will be activated by adding 7×(5 μL) ionomycin at a final concentration of 5 μM. Fluorescence will be recorded continuously during FLIPR steps 2 and 3. • Positive Control Antagonist: PPADS (1 mM).
Data acquisition was performed via the FLIPRControl software that is supplied with the FLIPR System (MDS-AT) and data was analyzed using Microsoft Excel2003 (Microsoft Corp., Redmond, WA).

SMILES strings stand for the structures.

Broadly, the IC50 is the midpoint of a concentration-inhibition curve. In the case of `CNC(=O)c1ccc(-c2nc3cc(C(F)F)ccn3c2C[C@H]2CN(C(=O)OC)CCO2)c(F)c1` [Compound A42, methyl (S)-2-((7-(difluoromethyl)-2-(2-fluoro-4-(methylcarbamoyl)phenyl)imidazo[1,2-a]pyridin-3-yl)methyl)morpholine-4-carboxylate], the IC50 is < 100 nM.
As to `CNC(=O)c1ccc(-c2nc3cc(C(F)F)ccn3c2C[C@H]2CN(C(=O)OC)CCO2)c(C)c1` [Compound A43, methyl (S)-2-((7-(difluoromethyl)-2-(2-methyl-4-(methylcarbamoyl)phenyl)imidazo[1,2-a]pyridin-3-yl)methyl)morpholine-4-carboxylate], the IC50 is < 100 nM.
Still for that read-out and setting: under `CNC(=O)c1cc(C)c(-c2nc3cc(C(F)F)ccn3c2C[C@H]2CN(C(=O)OC)CCO2)cc1F` [Compound A44, methyl (S)-2-((7-(difluoromethyl)-2-(5-fluoro-2-methyl-4-(meth-ylcarbamoyl)phenyl)imidazo[1,2-a]pyridin-3-yl)methyl)morpholine-4-carboxylate] stands < 100 nM.
Still for that read-out and setting: next, `CCc1ccn2c(C[C@H]3CN(C(=O)OC)CCO3)c(-c3ccc(C(=O)NC)cc3F)nc2c1` [Compound A45, methyl (S)-2-((7-ethyl-2-(2-fluoro-4-(methylcarbamoyl)phenyl)imidazo[1,2-a]pyridin-3-yl)methyl)morpholine-4-carboxylate]: < 100 nM; `CNC(=O)c1ccc(-c2nc3cc(S(C)(=O)=O)ccn3c2C[C@H]2CN(C(=O)OC)CCO2)c(F)c1` [Compound A48, methyl (S)-2-((2-(2-fluoro-4-(methylcarbamoyl)phenyl)-7-(methylsulfonyl)imidazo[1,2-a]-pyridin-3-yl)methyl)morpholine-4-carboxylate]: > 1000 nM; `CNC(=O)c1ccc(-c2nc3cc(CF)ccn3c2C[C@H]2CN(C(=O)OC)CCO2)c(F)c1` [Compound A49, methyl (S)-2-((2-(2-fluoro-4-(methylcarbamoyl)phenyl)-7-(fluoromethyl)imidazo[1,2-a]pyridin-3-yl)methyl)morpholine-4-carboxylate]: 100 to 1000 nM.
In the case of `CNC(=O)c1ccc(-c2nc3cc(C4CC4)ccn3c2C[C@H]2CN(C(=O)OC)CCO2)c(F)c1` [Compound A52, methyl (S)-2-((7-cyclopropyl-2-(2-fluoro-4-(methylcarbamoyl)-phenyl)imidazo[1,2-a]pyridin-3-yl)methyl)morpholine-4-carboxylate], the inhibition at 1 µM was determined as 50%.
The same measure, in the same setting: next, `COC(=O)N1CCO[C@@H](Cc2c(-c3ccc([S+](C)[O-])cc3F)nc3cc(C)ccn23)C1` (stereo partly drawn) [Compound A58, methyl (2S)-2-((2-(2-fluoro-4-(methylsulfinyl)phenyl)-7-methyl-imidazo[1,2-a]pyridin-3-yl)methyl)morpholine-4-carboxylate]: 16%.
In the case of `COC(=O)N1CCO[C@@H](Cc2c(-c3ccc(S(C)(=O)=O)cc3F)nc3cc(C)ccn23)C1` [Compound A61, methyl (S)-2-((2-(2-fluoro-4-(methylsulfonyl)phenyl)-7-methylimidazo[1,2-a]pyridin-3-yl)methyl)morpholine-4-carboxylate], the IC50 was 100 to 1000 nM.
As for `COC(=O)N1CCO[C@@H](Cc2c(-c3ccc(C(=O)N(C)C)cc3F)nc3cc(Cl)ccn23)C1` [Compound A65, methyl (S)-2-((7-chloro-2-(4-(dimethylcarbamoyl)-2-fluoro-phenyl)imidazo[1,2-a]pyridin-3-yl)methyl)morpholine-4-carboxylate], the IC50 lay in the range of 100 to 1000 nM.
For `CCN(C)C(=O)c1ccc(-c2nc3cc(Cl)ccn3c2C[C@H]2CN(C(=O)OC)CCO2)c(F)c1` [Compound A66, methyl (S)-2-((7-chloro-2-(4-(ethyl(methyl)carbamoyl)-2-fluoro-phenyl)imidazo[1,2-a]pyridin-3-yl)methyl)morpholine-4-carboxylate], the IC50 is < 100 nM.
The same measure, in the same setting: under `COC(=O)N1CCO[C@@H](Cc2c(-c3ccc(C(=O)N4CCCC4)cc3F)nc3cc(Cl)ccn23)C1` [Compound A67, methyl (S)-2-((7-chloro-2-(2-fluoro-4-(pyrrolidine-1-carbonyl)-phenyl)imidazo[1,2-a]pyridin-3-yl)methyl)morpholine-4-carboxylate] stands 100 to 1000 nM; under `COC(=O)N1CCO[C@@H](Cc2c(-c3ccc(C(=O)N4CC[C@H](O)C4)cc3F)nc3cc(Cl)ccn23)C1` [Compound A68, methyl (S)-2-((7-chloro-2-(2-fluoro-4-((S)-3-hydroxypyrrolidine-1-carbonyl)phenyl)imidazo[1,2-a]pyridin-3-yl)methyl)morpholine-4-carboxylate], 100 to 1000 nM.
Take `COC(=O)N1CCO[C@@H](Cc2c(-c3ccc(C(=O)N4CC[C@@H](O)C4)cc3F)nc3cc(Cl)ccn23)C1` [Compound A69, methyl (S)-2-((7-chloro-2-(2-fluoro-4-((R)-3-hydroxypyrrolidine-1-carbonyl)phenyl)imidazo[1,2-a]pyridin-3-yl)methyl)morpholine-4-carboxylate]: the IC50 was > 1000 nM.
Still for that read-out and setting: under `COCCNC(=O)c1ccc(-c2nc3cc(Cl)ccn3c2C[C@H]2CN(C(=O)OC)CCO2)c(F)c1` [Compound A73, methyl (S)-2-((7-chloro-2-(2-fluoro-4-((2-methoxyethyl)carbamoyl)phenyl)imidazo[1,2-a]pyridin-3-yl)methyl)morpholine-4-carboxylate] stands > 1000 nM.
As for `CNC(=O)c1ccc(-c2nc3cc(Cl)ccn3c2C[C@H]2CN(C(C)=O)CCO2)c(F)c1` [Compound A88, (S)-4-(3-((4-acetylmorpholin-2-yl)methyl)-7-chloroimidazo[1,2-a]pyridin-2-yl)-3-fluoro-N-methylbenzamide], the IC50 is 100 to 1000 nM.
Still for that read-out and setting: under `CCC(=O)N1CCO[C@@H](Cc2c(-c3ccc(C(=O)NC)cc3F)nc3cc(Cl)ccn23)C1` [Compound A89, (S)-4-(7-chloro-3-((4-propionylmorpholin-2-yl)methyl)imidazo-[1,2-a]pyridin-2-yl)-3-fluoro-N-methylbenzamide] stands 100 to 1000 nM.
In the case of `CNC(=O)c1cc(F)c(-c2nc3cc(C)ccn3c2CC2CCC(NC(C)=O)CC2)c(F)c1` (stereo not drawn) [cis-A21, 4-(3-((4-acetamidocyclohexyl)methyl)-7-methylimidazo[1,2-a]pyridin-2-yl)-3,5-difluoro-N-methylbenzamide], the inhibition at 1 µM worked out at 20%.
In the case of `CNC(=O)c1cc(F)c(-c2nc3cc(C)ccn3c2CC2CCC(NC(C)=O)CC2)c(F)c1` (stereo not drawn) [trans-A21, 4-(3-((4-acetamidocyclohexyl)methyl)-7-methylimidazo[1,2-a]pyridin-2-yl)-3,5-difluoro-N-methylbenzamide], the IC50 was > 1000 nM.
